According to patent US20090176742A1, “METHODS RELATING TO THE TREATMENT OF FIBROTIC DISORDERS” (UNIVERSITY OF WASHINGTON, priority 2005, published 2009):

Experiments:
Aquaporin 5 = Aquaporin 5 immunostaining of lung tissue in the bleomycin mouse model; type: in vivo, mice; settings: bleomycin and ICG-001 versus bleomycin alone
From the text: FIG. 22. […] Bleomycin alone, FIG. 22A; bleomycin and ICG-001, FIG. 22B; saline FIG. 22C.
The aquaporins are water channels expressed in a variety of cell types. Aquaporin 5 is involved in the transportation of water across the apical surface of the alveolar epithelium and the epithelia of the submucosal glands in the upper airway and nasopharynx. (Krane, C. M., P.N.A.S. 98:14192-4, 2001; Yang, F. J. Biol. Chem. 278:32173-80, 2003). Because aquaporin 5 is a marker of Type 1 (differentiated) lung epithelium, its expression was assayed in lung tissue created with bleomycin (FIG. 22A), bleomycin and ICG-001 (FIG. 22B), and saline (FIG. 22C), using the animal model as described in Example 2 (FIG. 15), and immunostaining with an antibody specific for Aquaporin 5.

S100A4 = assay: RT-PCR for S100A4 in bleomycin treated mice; type: in vivo; settings: ICG-001 5 mgs/Kg/day s.c.
From the text: (§1) FIGS. 16 and 17 show RT-PCR data for S100A4 (FIG. 16) and collagen1A2 (FIG. 17), which are increased in the bleomycin treated mice (treated with saline control).

E-Cadherin = assay: Western blot for E-Cadherin on whole cell lysates of cultured IPF patient fibroblasts; type: cell-based, human
Method: (§2) FIG. 20. FIG. 20 depicts a Western blots for S100A4 (also know as FSP-1 or fibroblast specific protein-1) and E-Cadherin performed on whole cell lysates of IPF patient fibroblasts cultured in RPMI1640+10% FBS for 2 days and treated with ICG-001.
(§3) Western blots for S100A4 (also know as FSP-1 or fibroblast specific protein-1) and E-Cadherin were performed on whole cell lysates (FIG. 20).

collagen1A2 = assay: RT-PCR for collagen1A2 in bleomycin treated mice; type: in vivo; settings: ICG-001 5 mgs/Kg/day s.c.
From the text: as §1

[1] = tested on: C57/B16 mice treated with intratracheal bleomycin; assay: Murine model of bleomycin induced pulmonary fibrosis; lung sections stained with trichrome for collagen, plus body weight and survival; type: in vivo
From the text: FIG. 15. FIG. 15 depicts lung sections taken from C57/B16 mice treated with intratracheal bleomycin (lower left) or saline (upper left) for 5 days and stained with trichrome ([…]) to stain collagen.
Murine models of bleomycin induced fibrosis have been developed in order to study […] disease progression.
There is an absence of airway epithelium in lower left compared to upper left (see arrow heads) and extensive collagen deposition (lower left). […] Of interest is the upper right (saline treatment) showing lack of normal airway epithelialization, extensive collagen deposition and intra-airway hypercellularity (fibroblasts and inflammatory influx).
The procedures were performed using the animal model as described in Example 2 (FIG. 15), and the sectioned lungs were stained for collagen.

[2] = tested on: S100A4 (FSP-1, fibroblast specific protein-1); assay: Western blot for S100A4 on whole cell lysates of cultured IPF fibroblasts; type: cell-based, human
Method: as §2, §3

[3] = tested on: TCF/β-catenin transcription; assay: Bat-Gal transgenic mice given intratracheal bleomycin; lung sections stained with X-Gal (reporter for TCF/β-catenin transcription); type: in vivo; settings: ICG-001 5 mg/Kg/day via minipump (subcutaneously)
Method: FIG. 14. FIG. 14A-C depicts lung sections taken from Bat-Gal transgenic mice given intratracheal saline or bleomycin and either treated with ICG-001 (5 mgs/Kg/day subcutaneously) or saline as vehicle control. The lungs were sectioned and stained with X-Gal (blue color.) FIG. 14A, intratracheal bleo+saline; FIG. 14B, intracheal bleo+ICG-001; FIG. 14C, saline+saline.
Using this murine model of pulmonary fibrosis in transgenic Bat-Gal mice, ICG-001 5 mg/Kg/day, administered via minipump) blocked >95% of bleomycin-induced TCF/β-catenin transcription.
These mice have a Beta-Galactosidase transgene driven by a TCF/Catenin driven promoter (i.e. a read out for activated Wnt/catenin signaling). The mice were given intratracheal saline or bleomycin and either treated with ICG-001 (5 mgs/Kg/day subcutaneously) or saline as vehicle control. The mice were sacrificed and the lungs sectioned and stained with X-Gal (blue color) A) intratracheal bleo+saline. B) intracheal bleo+ICG-001 C) saline+saline.
The dose was selected because ICG-001 reduces TCF/β-Catenin driven β-Galactosidase expression >95% at 5 mgs/Kg/day.

[4] = IPF patient fibroblasts cultured for 2 days
[5] = bleomycin and ICG-001 versus bleomycin
[6] = bleomycin for 5 days, then ICG-001 5 mgs/Kg/day for 10 days from the sixth day

Q: For `O=C1[C@H](Cc2ccc(O)cc2)N2C(=O)CCN(C(=O)NCc3ccccc3)[C@H]2CN1Cc1cccc2ccccc12` [ICG-001], which “aquaporin 5 expression (immunostaining, marker of Type 1 lung epithelium)” value (Aquaporin 5) is on record?
A: greatly increased

Q: What about the “S100A4 message (RT-PCR)” value (S100A4) of the same compound?
A: reduced essentially to negative control

Q: What about the “E-cadherin expression at the mRNA level” value (E-Cadherin; IPF patient fibroblasts) of the same compound?
A: also true at the mRNA level

Q: And the “E-cadherin expression (Western blot, whole cell lysates)” value (E-Cadherin; [4])?
A: increased

Q: What about the “collagen1A2 message (RT-PCR)” value (collagen1A2) of the same compound?
A: reduced essentially to negative control

Q: And the “alveolar fibrosis (lung sections stained for collagen)” value [1, 5]?
A: prevented

Q: And the “interstitial fibrosis (lung sections stained for collagen)” value [1, 5]?
A: prevented

Q: And the body weight ([1]; bleomycin for 5 days, then ICG-001 5 mgs/Kg/day for 10 days)?
A: regained normal body weight

Q: And the “airway appearance in trichrome-stained lung sections” value [1, 6]?
A: the airway looks essentially normal

Q: What about the “collagen levels (trichrome stain)” value [1, 6] of the same compound?
A: normal collagen levels

Q: What about the survival ([1]; bleomycin for 5 days, then ICG-001 5 mgs/Kg/day for 10 days, untreated controls did not survive) of the same compound?
A: survived

Q: And the “fibrosis over the 25 days of treatment” value ([1]; bleomycin mouse model, 25 days of treatment)?
A: reversed fibrosis

Q: And the “disease progression, as judged by reduced mortality, histopathology and endogenous gene expression” value ([1]; bleomycin murine model, 5 mg/Kg/day)?
A: not only halted but reversed disease progression

Q: And the “S100A4 expression (whole cell lysates)” value ([2]; ATCC IPF cells cultured in RPMI1640+10% FBS for 2 days)?
A: decreased

Q: And the “S100A4 expression at the mRNA level” value ([2]; IPF patient fibroblasts)?
A: also true at the mRNA level

Q: What about the “S100A4 expression (Western blot, whole cell lysates)” value [2, 4] of the same compound?
A: decreased

Q: And the “bleomycin-induced TCF/β-catenin transcription (TCF/β-Catenin driven β-Galactosidase expression) blocked/reduced” value [3]?
A: > 95%
